Assay results: paper PMC3198391, “Mechanism of Disruption of the Amt-GlnK Complex by PII-Mediated Sensing of 2-Oxoglutarate” (PLoS ONE, 2011)

Experiments:
Af-GlnK3 [1] = biological target: T1, Af-GlnK3 (Archaeoglobus fulgidus, UniProt O28524, F97I); test: isothermal titration calorimetry, one-site model; assay type: binding; conditions: read-out: Dissociation constantKD
T1 construct: full length, pET21a, C-terminal pentahistidine tag kept, three Ala (113-115) inserted in linker before tag; E. coli BL21(DE3) Rosetta; 13 kDa monomer, homotrimer; forward primer encodes MKMVVAVI, reverse end TGDEEV; sites between monomers
Description: (§1) isothermal titration calorimetry, one-site model on Af-GlnK3

Af-GlnK3 [2] = biological target: T2, Af-GlnK3 (Archaeoglobus fulgidus, UniProt O28524, F97P); test: isothermal titration calorimetry, one-site model; assay type: binding; conditions: read-out: Dissociation constantKD
T2 construct: full length, pET21a, C-terminal pentahistidine tag kept, three Ala (113-115) inserted in linker before tag; E. coli BL21(DE3) Rosetta; 13 kDa monomer, homotrimer; forward primer encodes MKMVVAVI, reverse end TGDEEV; sites between monomers
Description: as §1

Af-GlnK3 [3] = biological target: T3, Af-GlnK3 (Archaeoglobus fulgidus, UniProt O28524); test: isothermal titration calorimetry, one-site model; assay type: binding; conditions: read-out: Dissociation constantKD
T3 construct: full length, pET21a, C-terminal pentahistidine tag kept, three Ala (113-115) inserted in linker before tag; E. coli BL21(DE3) Rosetta; 13 kDa monomer, homotrimer; forward primer encodes MKMVVAVI, reverse end TGDEEV; sites between monomers
Description: as §1

[4] = biological target: Af-GlnK3 (Archaeoglobus fulgidus) (UniProt O28524); test: crystal structure; vapour diffusion, sitting drop, trimer fraction from size exclusion chromatography; crystals as isolated, soaked with MgATP or MgADP, or co-crystallised with MgATP and 2-OG
[5] = biological target: Af-GlnK3 (Archaeoglobus fulgidus) (UniProt O28524); test: SEC; gel filtration during purification; 50 mM Tris-HCl pH 8.0, 300 mM NaCl

Af-GlnK3 (from UniProt O28524 1-120) (natural protein), sequence (O28524 whole entry): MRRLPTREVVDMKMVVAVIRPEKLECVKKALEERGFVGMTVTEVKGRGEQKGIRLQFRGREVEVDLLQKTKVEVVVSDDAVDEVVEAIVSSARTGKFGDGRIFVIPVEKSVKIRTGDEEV
T2 sequence (O28524 12-120 F97P): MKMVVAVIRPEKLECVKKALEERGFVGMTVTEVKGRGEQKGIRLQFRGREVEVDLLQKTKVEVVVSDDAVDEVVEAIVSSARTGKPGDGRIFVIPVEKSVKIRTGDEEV
T1 sequence (O28524 12-120 F97I): as the sequence (O28524 12-120 F97P) above, with P86I counted along it
T3 sequence (O28524 12-120): as the sequence (O28524 12-120 F97P) above, with P86F counted along it

Row | Kd (Af-GlnK3 [1]) [µM] | Kd (Af-GlnK3 [2]) [µM] | Kd (Af-GlnK3 [3]) [µM] | stoichiometry N [4] | stoichiometry N [5] | Molecule
1 | 373 | 102 | 568 | – | – | Nc1ncnc2c1ncn2[C@@H]1O[C@H](COP(=O)(O)OP(=O)(O)O)[C@@H](O)[C@H]1O [ADP]
2 | 149 | 128 | 338 | – | – | Nc1ncnc2c1ncn2[C@@H]1O[C@H](COP(=O)(O)OP(=O)(O)OP(=O)(O)O)[C@@H](O)[C@H]1O [ATP]
3 | – | – | – | 3 | 3 | Af-GlnK3 (from UniProt O28524 1-120) (natural protein)
